# According to US10525110B2, “Methods for inducing partial apoptosis using caspase polypeptides” (Bellicum Pharmaceuticals, Inc., priority 2013, dated 2020):
# Experiments:
# [1] = system: gene-modified allodepleted cells; test: Induction of apoptosis with AP20187 in gene-modified allodepleted cells (annexin V/7-AAD); assay type: cell-based, human
# Protocol: Suicide gene functionality was assessed by adding a small molecule synthetic homodimerizer, AP20187 (Ariad Pharmaceuticals; Cambridge, Mass.), at 10 nM final concentration the day following CD19 immunomagnetic selection. Cells were stained with annexin V and 7-amino-actinomycin (7-AAD)(BD Pharmingen) at 24 hours and analyzed by flow cytometry. Cells negative for both annexin V and 7-AAD were considered viable, cells that were annexin V positive were apoptotic, and cells that were both annexin V and 7-AAD positive were necrotic. The percentage killing induced by dimerization was corrected for baseline viability as follows: Percentage killing=100%−(% Viability in AP20187-treated cells÷% Viability in non-treated cells).
# Cells were maintained in T cell medium containing 50 U/ml IL-2 until 22 days after transduction. A portion of cells was reactivated on 24-well plates coated with […] OKT3 and 1 μg/ml anti-CD28 (Clone CD28.2, BD Pharmingen, San Jose, Calif.) for 48 to 72 hours. CD19 expression and suicide gene function in both reactivated and non-reactivated cells were measured on day 24 or 25 post transduction.
# In some experiments, cells also were cultured for 3 weeks post transduction and stimulated with 30G-irradiated allogeneic PBMC at a responder:stimulator ratio of 1:1. After 4 days of co-culture, a portion of cells was treated with 10 nM AP20187. Killing was measured by annexin V/7-AAD staining at 24 hours, and the effect of dimerizer on bystander virus-specific T cells was assessed by pentamer analysis on AP20187-treated and untreated cells.
# iCasp9-transduced MSCs = test: Apoptosis of iCasp9-transduced undifferentiated MSCs in vitro (annexin V-PE/7-AAD); assay type: cell-based, human; conditions: CID 50 nM, 24 hours, FACS example
# Protocol: Undifferentiated MSCs. The chemical inducer of dimerization (CID) (AP20187; ARIAD Pharmaceuticals, Cambridge, Mass.) was added at 50 nM to iCasp9-transduced MSCs cultures in complete medium. Apoptosis was evaluated 24 hours later by FACS analysis, after cell harvest and staining with annexin V-PE and 7-AAD in annexin V binding buffer (BD Biosciences, San Diego, Calif.). Control iCasp9-transduced MSCs were maintained in culture without exposure to CID.
# The proapoptotic gene product iCasp9 can activated by a small chemical inducer of dimerization (CID), AP20187, an analogue of tacrolimus that binds the FK506-binding domain present in the iCasp9 product. Non-transduced MSCs have a spontaneous rate of apoptosis in culture of approximately 18% (±7%) as do iCasp9-positive cells at baseline (15±6%, P=0.47). Addition of CID (50 nM) to MSC cultures after transduction with iCasp9-ΔCD19 results in the apoptotic death of more than 90% of iCasp9-positive cells within 24 hrs (93±1%, P<0.0001), while iCasp9-negative cells retain an apoptosis index similar to that of non-transduced controls (20±7%, P=0.99 and P=0.69 vs. non-transduced controls with or without CID respectively) (see FIGS. 17A and 70B). […] Apoptosis was evaluated 24 hours later by FACS analysis, after cell harvest and staining with annexin V-PE and 7-AAD. […]
# [2] = system: differentiated progeny of human MSCs expressing iCasp9; test: Apoptosis of differentiated iCasp9-positive MSCs (TUNEL, cell density); assay type: cell-based; conditions: adipocytic differentiation, 50 nM CID, after 24 hours (from 584 cells/mm2)
# Protocol: Differentiated MSCs. Transduced MSCs were differentiated as presented above. At the end of the differentiation period, CID was added to the differentiation media at 50 nM. Cells were stained appropriately for the tissue being studied, as presented above, and a contrast stain (methylene azur or methylene blue) was used to evaluate the nuclear and cytoplasmic morphology. In parallel, tissues were processed for terminal deoxynucleotidyl-transferase dUTP nick end labeling (TUNEL) assay as per manufacturer instructions (In Situ Cell Death Detection Kit, Roche Diagnostics, Mannheim, Germany). For each time point, four random fields were photographed at a final magnification of 40× and the images were analyzed with ImageJ software version 1.43o (NIH, Bethesda, Md.). Cell density was calculated as the number of nuclei (DAPI positivity) per unit of surface area (in mm^2). The percentage of apoptotic cells was determined as the ratio of the number of nuclei with positive TUNEL signal (FITC positivity) to the total number of nuclei. Controls were maintained in culture without CID.
# After culture in adipocytic differentiation media, iCasp9-positive cells gave rise to adipocytes. After exposure to 50 nM CID, progressive apoptosis was observed as evidenced by an increasing proportion of TUNEL-positive cells. […]
# [3] = system: iCasp9-ΔCD19-transduced MSCs; test: In vivo killing of iCasp9-ΔCD19-transduced MSCs in SCID mice (luminescence, qPCR)
# [4] = system: T cells transduced with these inducible death molecules; conditions: inducible Fas or FADD DED; cited from earlier work
# [5] = 10 nM, 24 hours, day following immunomagnetic selection
smiles,measurement,setting,value
CC[C@H](C(=O)N1CCCC[C@H]1C(=O)O[C@H](CCc1ccc(OC)c(OC)c1)c1cccc(OCC(=O)NCC(CNC(=O)COc2cccc([C@@H](CCc3ccc(OC)c(OC)c3)OC(=O)[C@@H]3CCCCN3C(=O)[C@@H](CC)c3cc(OC)c(OC)c(OC)c3)c2)CN(C)C)c1)c1cc(OC)c(OC)c(OC)c1 [AP20187],AP20187-treated cells remaining viable,[1]; [5],about 5.5%±2.5
same,Killing efficiency after correction for baseline viability,[1]; [5],about 92.9%±3.8
same,killing efficiency,"[1]; day 24 or 25, OKT3/aCD28-reactivated cells",~84.6%±8.0
same,residual viability following treatment with AP20187,"[1]; day 24 post transduction, 10 nM",19.6±5.6%
same,apoptosis / elimination of iCasp9-modified T cells after dimerizer (summary statement),"[1]; in vitro, listed as small-molecule dimerizer",> 90%
same,annexin positive iCasp9-CD19-positive cells (iCasp pos/CID),iCasp9-transduced MSCs,Ninety-three
same,annexin positive negative population (iCasp neg/CID),iCasp9-transduced MSCs,19%
same,cell density after CID,[2],< 14 cells/mm2
same,"surviving iCasp9-positive cells, % of the original population","[3]; after one week, qPCR",0.7%
same,effect on cells negative for iCasp9,[3]; luminescence,not affected
same,transduced T cells undergoing apoptosis after administration of CID,[4],Up to 90%
